This note sets out measurements from PMC6533572, “Elucidation of the Differences in Cinobufotalin’s Pharmacokinetics Between Normal and Diethylnitrosamine-Injured Rats: The Role of P-Glycoprotein” (Frontiers in Pharmacology, 2019).

The inhibition is the relative decrease from the control value, in per cent. For orientation: Papp A→B means how fast a substance crosses the layer from the apical side. A lower Papp A→B goes with slow passage. What is called Papp B→A is the apparent permeability from the basolateral to the apical side of a cell layer.

One data set deals with MDCK II cells. The data set can be described thus: Cellular uptake (intracellular accumulation) in MDCK II cells. Conditions: verapamil 100 μM, 2 h. Type of data set: in vitro ADME, canine. The protocol:
Madin Darby canine kidney (MDCK II) cells stably transfected with multidrug resistance 1 gene (MDCK-MDR1 cells) were conducted and used in cinobufotalin uptake studies. Wild type MDCK II or MDCK-MDR1 cells were seeded into six-well plates at the destiny of 2 × 10^5 cells/well and maintained at 37°C under 5% CO2 in DMEM with 10% FBS. The well-known P-gp inhibitor, verapamil (100 μM), was used as the positive control to evaluate the effect of P-gp on cinobufotalin uptake ([Bicker et al., 2017]).
The uptake experiment was performed when the cells reached 100% confluency. First, cells were washed three times using 37°C Hanks’ balanced salt solution (HBSS) buffer (pH = 7.2). Then, 2 mL HBSS (37°C, pH = 7.2) buffer containing cinobufotalin (5 and 20 μM) were added and incubated with cells in the absence or presence of potential P-gp inhibitors, verapamil (100 μM). After incubation for 2 h, the incubation medium was removed, and cells were washed three times using ice-cold HBSS buffer. Then 400 μL of ice-cold MeOH:H2O (1:1, v/v) were added into each well, the cells were collected and sonicated for 15 min in ice-cold water. The mixture was centrifuged at 4°C (12,000 g, 10 min), and the supernatant was subjected to UPLC-QTOF/MS for analyses.

Data set [1] relates to Huh-7 cells. The data set can be described thus: Wound healing assay, Huh-7 cells. Conditions: 40, 60 and 80 nM, 24 h. Type of data set: cell-based. How it is done:
(§1) Hepatocellular cancer cells (HepG2 and Huh-7) were purchased from the cell bank of the Chinese Academy of Science (Shanghai, China). These cells were cultured in Dulbecco’s modified Eagle’s medium (DMEM) containing 10% fetal bovine serum (FBS), penicillin (100 units/mL) and streptomycin (100 units/mL) in a humidified atmosphere with 5% CO2 at 37 °C.
Wound healing assay was used to investigate the effect of cinobufotalin on the migration of HepG2 and Huh-7 cells. Cells were seeded into 6-well plates at the density of 4 × 10^5 cells/well and maintained until reaching monolayer confluence. The cells were scratched using 20-μL pipette tips and rinsed with PBS buffer for three times. And then the cells were cultured in serum-free medium containing different concentrations of cinobufotalin (40, 60, 80 nM). After treatment with cinobufotalin for different lengths of time (0 and 24 h), the width of wound was measured and the images of cells were acquired using inverted microscope (Leica, Wetzlar, German). The rate of wound healing = [(the wound width of 0 h - 24 h)/0 h wound width] × 100%. All experiments were performed in triplicate.

The test system of a further data set is HepG2 cells. The data set can be described thus: Cell viability CCK-8 assay, HepG2 cells. Conditions: Homo sapiens, 40 nM, 60 nM and 80 nM, 24 h, read-out: inhibition of HepG2 cells growth (CCK-8). It is filed as cell-based. How it is done: as §1
(§2) Furthermore, the effect of cinobufotalin at 40, 60, 80 nM on hepatocellular cancer cells (HepG2 and Huh-7 cells) viability was conducted using Cell Counting Kit - 8 (CCK-8) assay (Sigma-Aldrich, St Louis, MO). In brief, cells were seeded into 96-well plates at 5 × 10^3 cells/well and cultured for 24 h in DMEM medium as described in 1.1 section. Then various concentrations of cinobufotalin (40, 60, 80 nM) were added into cells. After 24 h treatment, 10 μL of CCK-8 solution was added into every well of the plate. The plate was incubated in the incubator for other 4 h, and then the absorbance was measured at 450 nm using a microplate reader (Thermo Scientific, Rockford, IL). The cell viability was calculated by the formula: cell viability (100%) = (OD value of the treated wells - OD value of the blank control wells) / (OD value of the negative control wells - OD value of the blank control wells).
Background: Formazan colour is commonly taken as a measure of viable cells.

A short description of data set [2]: Bidirectional transport across MDCK II cell monolayers. It is filed as in vitro ADME, canine. The note with it: dog; for efflux ratio at 120 min, 20 μM: read-out: ER. The protocol: MDCK II and MDCK-MDR1 cells were seeded into 12-well Transwell polycarbonate membrane inserts (12 mm diameter inserts, 0.4 μm pore size, Corning Costar) at a density of 6 × 10^5 cells/well. Cells were cultured at 37°C under 5% CO2 in DMEM with 10% FBS, and the culture medium was refreshed every other day. Experiments were conducted when the tight junctional cell monolayer formed. First, the cells were washed three times using 37°C preheated HBSS buffer (pH = 7.4) and preincubated in a shaking incubator for 30 min at 37°C. Then the transport studies were initiated after the blank HBSS buffer and dosing solution (HBSS buffer containing cinobufotalin at a final concentration of 20 μM) were added to the receiver compartment and donor compartment, respectively. Verapamil, if used, was added to both compartment during the incubated period. The volumes of the apical side (AP) and basolateral side (BL) were 0.5 and 1.5 mL, respectively. Samples (100 μL) were taken from the receiver compartment every 30 min during the incubation period of 120 min, and then replaced with the same volume of […]. At the end of the incubated period, aliquots of 100 μL were withdrawn from the donor compartment to calculated mass balance. All samples were mixed with 50 μL acetonitrile and centrifuged at 4°C (12,000 g, 10 min. The supernatant was subjected to UPLC-QTOF/MS for analyses.
The apparent permeability (cm/s) from apical-to-basal (Papp,AP-BL) and basal-to-apical (Papp,BL-AP) were calculated according to the following Equation (4), where dQ/dt is the rate of drug permeation (nmol/s), A is the area of polycarbonate membrane (A = 1.12 cm^2), and C0 is the initial concentration of cinobufotalin in the donor compartment.
The efflux ratio (ER) and net flux ratio were calculated according to Equations (5) and (6) as described in our previous research ([Sun et al., 2017]).
(5) ER=Papp, BL−AP/Papp, AP−BL

Data set [3] deals with Huh-7 cells. The data set can be described thus: Cell viability CCK-8 assay, Huh-7 cells. Type of data set: cell-based. Conditions: Homo sapiens, 40 nM, 60 nM and 80 nM, 24 h, read-out: inhibition of Huh-7 cells growth (CCK-8). How it is done: as §1, §2
Data set [4] in a line: Stability in rat plasma under storage conditions. It is filed as physicochemical. The protocol:
In addition, the stabilities of cinobufotalin at 20, 200, and 2000 ng/mL in different storage conditions were evaluated, including short term stability (such as 25°C for 4, 8, 12, and 24 h and 4°C for 4, 8, 12, and 24 h), long term stability (-80°C for 10 days) and three freeze-thaw cycles in rat plasma. Stabilities were expressed as the concentrations after different operations to the concentration at time zero. All of the samples were processed as described in Preparation of rat plasma samples section. A 5 μL aliquot was injected to UPLC-QTOF/MS for analyses.

Setting [5] is: pH 7.4, with verapamil (concentration not stated), in both compartments, cinobufotalin 20 μM, with verapamil.

Read-outs that look alike come from different tables or passages of the source.

As for `CC(=O)O[C@H]1[C@H]2O[C@]23[C@@H]2CC[C@]4(O)C[C@@H](O)CC[C@]4(C)[C@H]2CC[C@]3(C)[C@H]1c1ccc(=O)oc1` [Cinobufotalin], in the data set with MDCK II cells, the “effect of verapamil on the intracellular accumulation of cinobufotalin” value is “did not alter”. The “migration of Huh-7 cells (wound healing)” value in the data set on Huh-7 cells [1] is “significantly attenuated”. Moreover, the inhibition at 0.04 µM in the data set with HepG2 cells and in the data set with Huh-7 cells [3] was below 15% in each case. Besides, the apparent permeability from apical to basolateral (Papp A→B) at 120 min, 20 μM in data set [2] (pH 7.4, cinobufotalin 20 μM) was 33.8 ± 1.1 ×10⁻⁶ cm/s; in data set [2] (setting [5]), 23.4 ± 2.2 ×10⁻⁶ cm/s. Further, the Papp B→A at 120 min, 20 μM in data set [2] (pH 7.4, cinobufotalin 20 μM) came to 35.9 ± 1.3 ×10⁻⁶ cm/s; in data set [2] (setting [5]), 24.8 ± 2.7 ×10⁻⁶ cm/s. In addition, the efflux ratio at 120 min, 20 μM in data set [2] (pH 7.4, cinobufotalin 20 μM) worked out at 1.1; in data set [2] (setting [5]) it was 1.1. Also, the “Stability in rat plasma, Freezing-thaw 3 cycles” value in data set [4] (20 ng/mL) was found to be 99.2 ± 0.8%; in data set [4] (200 ng/mL), 95.6 ± 1.6%; in data set [4] (2000 ng/mL), 99.2 ± 0.6%. Moreover, the “Stability in rat plasma, -80°C for 10 days” value in data set [4] (200 ng/mL) turned out to be 100.9 ± 1.2%; in data set [4] (2000 ng/mL), 97.3 ± 5.6%.
